This note sets out measurements from patent publication US8492342B2, “Preprocalcitonin antigen T epitopes” (Institut Gustave Roussy, priority 2007, dated 2013).

Format in all cases: cell-based, human
Assay [1] has as its system IGR-Heu tumor cells. As to the kind of experiment: Proteasome inhibition: CTL recognition (TNFβ release) of inhibitor-treated IGR-Heu tumor cells. To be noted: 10 μM, FIG. 4A. The method, then:
FIG. 4: Processing of the preprocalcitonin16-25 peptide is proteasome- and TAP-independent. A. IGR-Heu target cells were incubated for 2 h at 37° C. in the presence or absence of the proteasome-specific inhibitor epoxomicin, and then Heu161 cells were added. The autologous Heu127 clone, recognizing on IGR-Heu a proteasome-dependent mutated α-actinin-4 peptide, was included as a positive control. TNFβ released in medium after 24 h of culture was measured as above. B. 293-EBNA cells were cotransfected with pCEP4 containing either cDNA 150 (upper panel) or the mutated α-actinin-4 cDNA (lower panel), with pcDNA3.1 containing an HLA-A*0201 construct, and with various amounts of vector pBJi-neo containing IPC47 cDNA. CTL clones Heu161 (upper panel) or Heu127 (lower panel) were then added. Controls included 293-EBNA cells transfected with HLA-A2 or pBJi-neo-IPC47 alone, and incubation of transfectants with either preprocalcitonin or α-actinin-4 peptides. Data shown are representative of four independent experiments.
(§1) TNFβ was detected by measuring the cytotoxicity of the culture medium on TNF-sensitive WEHI-164c13 cells with a MTT colorimetric assay (ESPEVIK & NISSEN-MEYER, J Immunol Methods, 95, 99-105, 1986).
For proteasomes and SP inhibition, 10^6 tumor cells were resuspended in 300 μl of media in the presence or absence of specific inhibitors. […]

Assay [2] deals with CTL clone Heu161. As to the kind of experiment: CTL stimulation (TNF release) by synthetic peptides loaded on HLA-A2+ MZ2-MEL.3.1 melanoma cells. The method, then: (§2) FIG. 3: Identification of the antigenic peptide recognized by CTL clone Heu161. A. CTL stimulation with purified synthetic peptides. Peptides were loaded on allogeneic HLA-A2^+ MZ2-MEL.3.1 melanoma cells for 60 min at room temperature before addition of CTL clone Heu161. TNF release was measured 16 h later. Empty circles represent the results obtained with peptide SEQ ID NO: 1, full circles represent the results obtained with peptide SEQ ID NO: 2, empty squares represent the results obtained with peptide SEQ ID NO: 24, full squares represent the results obtained with peptide SEQ ID NO: 25 and empty diamonds represent the results obtained with peptide SEQ ID NO: 26. B. Lytic activity of CTL clone on peptide-pulsed cells. ^51Cr-labeled Heu-EBV-B cells were incubated over 60 min with the indicated concentrations of peptides before addition of CTL clone Heu161 at an E/T cell ratio of 10:1. Chromium release was measured after 4 h. Empty circles represent the results obtained with peptide SEQ ID NO: 1, full circles represent the results obtained with peptide SEQ ID NO: 2
as §1
We then prepared a series of calcitonin cDNA fragments truncated at their 5′ end and engineered to contain an initiation codon and a Kozak consensus sequence. […] Further trimming narrowed down the peptide-encoding region to residues 9-38 (FIG. 2B). Among a set of overlapping peptides covering this region, only two were recognized by CTL clone Heu161: VLLQAGSLHA (SEQ ID NO: 1) and LVLLQAGSLHA (SEQ ID NO: 2), which are identical, but with an additional leucine in the latter peptide. […] In a lysis assay, the decamer was slightly more efficient than the 11-mer peptide by a factor of about three (FIG. 3B). We concluded that the optimal antigenic peptide recognized by CTL clone Heu161 was VLLQAGSLHA (SEQ ID NO: 1) or preprocalcitonin16-25. This peptide corresponds exactly to the C-terminal part of the preprocalcitonin signal peptide (LE MOULLEC et al., FEBS Lett, 167, 93-7, 1984).

Assay [3] deals with CTL clone Heu161. As to the kind of experiment: Lytic activity of CTL clone on peptide-pulsed 51Cr-labeled Heu-EBV-B cells. To be noted: E/T 10:1, 4 h chromium release, FIG. 3B. The method, then: as §2
Cytotoxic activity was measured by a conventional 4-h ^51Cr-release assay using triplicate cultures in round-bottomed 96-well plates. Percent specific cytotoxicity was calculated conventionally; SD were <5%. […]

`CC[C@H](C)[C@H](NC(=O)[C@H]([C@@H](C)CC)N(C)C(C)=O)C(=O)N[C@H](C(=O)N[C@@H](CC(C)C)C(=O)[C@@]1(C)CO1)[C@@H](C)O` [epoxomicin]: the “effect on recognition by anti-preprocalcitonin CTL clone Heu161” value in assay [1] is recorded as “no effect”.
With “VLLQAGSLHA [SEQ ID NO: 1, optimal antigenic peptide recognized by CTL clone Heu161, C-terminal part of the preprocalcitonin signal peptide]”, in assay [2] (HLA-A2+ melanoma cells loaded 60 min, TNF release after 16 h, FIG. 3A, read-out: peptide concentration giving half-maximal effect (sensitization to recognition by CTL Heu161)), the EC50 was ~10 nM. Moreover, in assay [2] (overlapping synthetic peptides of preprocalcitonin), the “recognition of peptide by CTL clone Heu161” value is on record as “recognized”. Besides, the “efficiency in lysis assay, decamer relative to 11-mer (factor)” value in assay [3] is on record as “about three”.
